Where no end group is shown, it is not given here.
Test system: rat lacrimal secretion
Test: Rat lacrimal secretion in vivo, Schirmer test paper, after intravenous administration of PAR-associated peptides
Conditions: male Wistar rat
Procedure: An amount of lacrimal fluid may be measured according to the known method such as a method of Iga et al. using a rat (Iga, Y. et al., Jpn. J. Pharmacol., 78, 373-80, 1998). In particular, a rat is anesthetized with pentobarbital (50 mg/kg, intraabdominal administration), and a paper with 2 mm width for testing the human lacrimal secretion function, the Schirmer test paper (Showa Yakuhin Kako Co., Ltd.) is inserted into a lower eyelid of the rat. After a period of time fixed has passed, the test paper is removed, and a length of the wetted portion of the test paper is measured using a caliper square.
Male Wistar-line rat at 6 weeks of age was used in experiments. Each animal was housed for one week under the environment of room temperature of 23±2° C., a humidity of 50±5% and a 12 hours light/dark cycle (light: 07:00-19:00) and, thereafter, it was subjected to experiments. During the housing and experiment period, the animal was fed a solid chow and water ad lib.
Four animals were used in Examples 3-4, and the results thereof are shown in the mean±S.E.M. The test of significance was performed according to a Tukey's multiple comparison test.
An amount of rat lacrimal fluid was measured according to the method of Iga et al. (Iga, Y. et al., Jpn. J. Pharmacol., 78, 373-80, 1998). That is, the rat was anesthetized with pentobarbital (50 mg/kg, intraabdominal administration), and a paper with 2 mm width for testing human lacrimal secretion function, the Schirmer test paper (Showa Yakuhin Kako Co., Ltd.) was inserted into a lower eyelid of the rat. After the period of time fixed has passed, the test paper was removed, and a length of a wetted portion of the test paper was measured using a caliper square. An amount of lacrimal fluid was measured at 1, 2, 4, 6, 8 and 10 minutes after intravenous administration of a solvent or PAR-associated peptides.
An amount of lacrimal fluid was measured as described in Example 3.

[1] = 5 μmol/kg intravenously, peptide alone, Example 3 (FIG. 1)

Substance | effect on rat lacrimal secretion (5 μmol/kg intravenously, Example 4 (FIG. 2), vs solvent-administrated group) | effect on lacrimal secretion (length of wetted portion of Schirmer test paper) [1] | time of peak of lacrimal secretion promotion after intravenous administration [1] [min] | dose-dependency of rat lacrimal secretion promoting action (1 to 5 μmol/kg intravenously, Example 4 (FIG. 2), vs solvent) | lacrimal secretion 8 and 10 minutes after combined treatment with amastatine, as compared with SLp-NH2 alone (SLp-NH2 5 μmol/kg i.v. with amastatine 2.5 μmol/kg i.v. 1 minute before, P<0.01 vs SLp-NH2 (Tukey test)) | persistence of lacrimal secretion promoting action in combined treatment with amastatine (SLp-NH2 5 μmol/kg i.v. with amastatine 2.5 μmol/kg i.v. 1 minute before, compared with SLp-NH2 alone)
Leu-Arg-Gly-Ile-Leu-Ser-NH2 (LRGILS-NH2) [LRp-NH2, designed control peptide, C-terminal amidated, reference compound] | no effect |  |  |  |  | 
Ser-Leu-Ile-Gly-Arg-Leu-NH2 (SLIGRL-NH2) [SLp-NH2] |  | significant promotion of lacrimal secretion | 1 | promoted the rat lacrimal secretion in doses of ranging from 1 to 5 μmol/kg in a dose-dependent manner | significant promotion of lacrimal secretion | more persistent than that of SLp-NH2 alone

Source: patent publication US7348306B2, “Composition for promoting lacrimal secretion” (Fuso Pharmaceutical Industries, Ltd., priority 1999, dated 2008)
